From article PMC3002932 (PLoS ONE, 2010)
Like-named read-outs stand apart in the source and are kept apart here.

Tests used:
[1] = tested on: human red blood cells (hRBCs); format: cell-based
Method: Heparinized fresh blood (∼3 ml) was collected from an anonymous donor. A 200 µl aliquot was removed and washed 4× with 800 µl of cold PBS at RT for 3 min at ∼500×g. After each centrifugation, 780 µl of supernatant was removed. After the last wash, the supernatant was completely removed and the packed red blood cells were diluted 1∶20 in PBS to prepare a 5% v/v stock suspension of hRBCs.
All experiments were carried out in triplicate using 96-well microplate (Costar 3596) and the OD at 700 nm was monitored every 30 s. employing the SpectraMAX 250 microplate reader (Molecular Devices, Sunnyvale, CA). Controls included PBS, untreated human RBCs, and human RBCs +2.5% Triton (100% lysis). The hemolytic effect was calculated as follows: [drawing 1]

[2] = molecular target: GRFN-1 (self-association); assay: SPR self-association of GRFN-1; format: binding; settings: BIAcore CM5 chip, HBS-EP pH = 7.4, KD±SEM, average from at least 5 independent experiments
[3] = molecular target: gp41 (Human immunodeficiency virus type 1 group M subtype B, UniProt P03375); settings: SPR, BIAcore CM5 chip, HBS-EP pH = 7.4; KD±SEM, average from at least 5 independent experiments
Method: Surface plasmon resonance (SPR) studies were performed on a BIAcore 3000 system (BiaCore AB, Piscataway, NJ), using BIAcore CM5 sensor chips and HBS-EP running buffer (pH = 7.4) containing 10 mM HEPES, 150 mM NaCl, 3 mM EDTA, and 0.005% polysorbate 20. Proteins/peptides were immobilized on a CM5 sensor chip using the amine coupling method. The chip was activated by mixing 400 mM N-ethyl-N-(3-dimethylaminopropyl)-carbodiimide hydrochloride and 100 mM N-hydroxysuccinimide. Residual reactive groups on the chip surface were blocked using 1.0 M ethanolamine/HCl (pH = 8.5). The flow cell-1 chamber, which served as a control, lacked immobilized protein but was treated with N-ethyl-N-(3-dimethylaminopropyl)-carbodiimide hydrochloride, N-hydroxysuccinimide, and ethanolamine/HCl. Binding signals were corrected for nonspecific binding by subtracting the flow cell-1 signal. To regenerate chip surfaces, bound ligands were removed with 10 mM HCl. Data were analyzed with BIAevaluation 4.1 software (Biacore, Piscataway, NJ).

[4] = tested on: CCR5 (HIV-1BAL); assay: p24^gag antigen release assay using PBMCs, CCR5 strain; format: cell-based; settings: PBMC based p24^gag antigen release assay
[5] = tested on: TZM-bl cells; assay: MTT reduction in TZM-bl cells; format: cell-based; settings: Figure 8
Method: (§1) Cell viability experiments were carried out using CytoTox-Glo™ Assay (Promega Corp., Madison, WI) and cytotoxicity was analyzed using an MTT-based cell proliferation kit (Boehringer Mannheim, Indianapolis, IN) Both tests were performed according to manufacturer's instructions. MTT is 3-(4,5-dimethylthiazol-2-yl)-2,5-diphenyltetrazolium bromide. Experiments utilizing vaginal epithelial cells (VECs) were carried out as previously described.

[6] = tested on: TZM-bl cells; assay: Cell viability (CytoTox-Glo) in TZM-bl cells; format: cell-based; settings: Figure 8
Method: as §1

[7] = FTIR spectroscopy secondary structure; format: physicochemical
Method: Infrared spectra were recorded at 25°C using a Bruker Vector 22™ FTIR spectrometer with a deuterated triglycine sulfate (DTGS) detector, and averaged over 256 scans at a gain of 4 with a resolution of 2 cm^−1. Peptide samples were initially freeze-dried several times from 10 mM HCl in D2O to remove any interfering counter ions and residual H2O. Solution spectra of peptides were made in deuterated 10 mM phosphate buffer, pD = 7.4 (pD = pH+0.4) and in structure promoting mixed solvent-buffer solutions (trifluoroethanol (TFE) or hexafluoroiso propanol (HFIP). Spectra were acquired using a temperature controlled, demountable liquid cell with calcium fluoride windows fitted with a 50 µm thick spacer (Harrick Scientific, Pleasantville, NY). The relative proportions of α-helix, β-turn, β-sheet, and disordered conformations of solution and multilayer IR spectra were determined by Fourier self-deconvolution for band narrowing and area calculations of component peaks of the FTIR spectra using curve-fitting software supplied by Galactic Software (GRAMS/AI, version 8.0; Thermo Electron Corp., Waltham, MA). The frequency limits for the different structures were: α-helix (1662–1645 cm^−1), β-sheet (1637–1613 and 1710–1682 cm^−1), turns (1682–1662 cm^−1), and disordered or random (1650–1637 cm^−1).

[8] = format: physicochemical; settings: for Molecular weight range: 20 mM NaH2PO4, 20°C, 280 nm; for OD280 lost on centrifugation / weight-average molecular weight: 20 mM NaH2PO4
Method: Sedimentation equilibrium was performed at 20°C in a Beckman Optima XL-A analytical ultracentrifuge using absorption optics at 280 nm. Twelve mm path length double sector cells were used for all samples. Samples (OD280 = 0.7 and OD280 = 0.15)) were in 20 mM NaH2PO4. Sedimentation equilibrium profiles were measured at speeds of 3000, 7000, 11000, 24000 and 36000 rpm. The data were fitted with a nonlinear least-squares exponential fit for a single ideal species using the Beckman Origin-based software (Version 3.01 A partial specific volume of 0.739 was estimated from the amino acid composition using 0.9 (the partial specific volume of a leucine residue) for the partial specific volume of cyclohexylalanine and cyclohexylglycine. It was then corrected to 20°C [47].

[9] = tested on: HIV-1 (BaL); assay: p24^gag antigen release assay in PM1 cells; format: cell-based; settings: MOI = 10^−2, 0.078–5 µM, 37°C/5% CO2, p24 ELISA, day 5 represents peak infection
Method: The cells were washed and resuspended in fresh growth media containing vehicle or peptides for 7 days. Supernatants were collected at days 3, 5, and 7 post-infection, and on days 3 and 5 the cells were resuspended in 1 ml of growth medium containing the appropriate concentration of vehicle or peptide. HIV-1 infection was quantified by measuring the amount of p24^gag in the cell supernatants (Perkin Elmer p24 ELISA, Waltham, MA).

[10] = molecular target: gp120BAL; assay: SPR binding to gp120BAL; parameters: species or system HIV-1; settings: BIAcore CM5 chip, HBS-EP pH = 7.4, KD±SEM, average from at least 5 independent experiments
[11] = 0.5 mM in 10 mM phosphate buffer pH = 7.5, 25°C
[12] = 0.5 mM in HFIP:10 mM phosphate buffer pH = 7.5 (4∶6, v∶v), 25°C
[13] = 0.5 mM in TFE:10 mM phosphate buffer pH = 7.5 (4∶6, v∶v), 25°C

gp41, sequence (P03375 512-856): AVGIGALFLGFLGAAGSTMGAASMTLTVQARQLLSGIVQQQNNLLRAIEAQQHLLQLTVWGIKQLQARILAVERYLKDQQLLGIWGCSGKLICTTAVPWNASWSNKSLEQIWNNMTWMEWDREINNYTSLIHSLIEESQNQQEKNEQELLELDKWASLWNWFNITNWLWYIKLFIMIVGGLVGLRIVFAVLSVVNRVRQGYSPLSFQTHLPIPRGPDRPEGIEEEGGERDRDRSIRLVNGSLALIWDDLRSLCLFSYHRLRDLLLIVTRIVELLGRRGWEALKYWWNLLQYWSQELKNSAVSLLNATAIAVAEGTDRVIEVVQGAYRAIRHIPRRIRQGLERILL

Substance: Cha-SC-Chg-R-Chg-RSGSY-Cha-DN-Chg-R-Chg-(D)Cys-CONH2 (disulfide) [GRFN-1]
- Hemolysis ([1]; 2.5 µM): 1.2±0.7%
- Hemolysis ([1]; 5 µM): 2.8±2.3%
- Hemolysis ([1]; 10 µM): 7.3±1.3%
- KD (self-association) [2]: 500 ± 130 nM
- Kd [3]: 3000 ± 1310 nM
- antiviral activity (in words) [4]: maintained their antiviral activity
- inhibition of cellular dehydrogenase activity (MTT reduction) [5]: appeared to inhibit cellular dehydrogenase activity (as gauged by MTT reduction) in a dose dependent manner
- effect on viability [6]: no effect on viability
- disordered [7, 11]: 27.6%
- turns [7, 11]: 22.4%
- α-helix [7, 11]: 12.4%
- β-sheet [7, 11]: 37.6%
- disordered [7, 12]: 25.8%
- turns [7, 12]: 17.2%
- α-helix [7, 12]: 48.6%
- β-sheet [7, 12]: 8.4%
- disordered [7, 13]: 24.8%
- turns [7, 13]: 20.3%
- α-helix [7, 13]: 23.2%
- β-sheet [7, 13]: 31.7%
- secondary structure (in words) ([7]; TFE:buffer and HFIP:buffer): shift from β-sheet to more helical conformations
- secondary structure (in words) ([7]; aqueous buffer): dominant β-sheet structure
- Molecular weight range ([8]; 3K rpm (limited data)): ∼150000 Da
- Molecular weight range ([8]; 7K rpm): 68500–84700 Da
- Molecular weight range ([8]; 11K rpm): 8950–38100 Da
- Molecular weight range ([8]; 24K rpm): 2541–6200 Da
- Molecular weight range ([8]; 36K rpm): 2245–2940 Da
- OD280 lost on centrifugation ([8]; 3000 rpm): less than 5%
- weight-average molecular weight ([8]; 7000 rpm, remaining heterogeneous material): about 69000
- OD280 lost on centrifugation ([8]; 7000 rpm): Approximately two-thirds
- weight-average molecular weight ([8]; early scans, after 16 hours, 3000 rpm): about 150,000
- turbidity ([8]; initially dissolved in 20 mM NaH2PO4): slightly turbid solution
- aggregation state (in words) ([8]; sedimentation equilibrium, diluted salt): high molecular weight soluble aggregates with some monomer present
- EC50 [9]: 547 ± 66.1 nM
- Kd [10]: 1060 ± 220 nM
